Columns and labels:
[1] = tested on: PD1-ss+10aa/Gaussia Luciferase; assay: Dox-Induced PD1-ss-Gluc Assay; type: cell-based; settings: 24 hr Dox induction; 293FRT/TO cells; read-out: 24 hr Dox Inducible PD1ssGluc 293FRT/TO: Mean IC50
In short: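 Stable Flp-In 293 T-REx cells carried a doxycycline-inducible construct of Gaussia luciferase fused to the PD1 signal sequence plus 10 amino acids. Cells were plated the day before, then treated with compound dilutions in DMSO/media containing doxycycline at 37 °C, 5% CO2.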

[2] = tested on: TNFα-FL/Gaussia Luciferase; assay: Dox Induced TNFα-FL-Gluc Assay; type: cell-based; settings: for IC50: 24 hr Dox induction, 293FRT/TO cells, read-out: 24 hr Dox Inducible TNFaFLGluc 293FRT/TO: Mean IC50; for 24 hr Dox Inducible TNFaFLGluc 293FRT/TO: TNF/PD1: ratio of TNFaFLGluc IC50 to PD1ssGluc IC50
In short: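 Compound was added with doxycycline to cells plated a day earlier, incubating at 37° C under 5% CO2. The reporter line is 293 T-REx expressing a TNFα (1-233)–Gaussia luciferase fusion under tetracycline-regulated control.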

[3] = tested on: HER3-ss+4aa/Gaussia Luciferase; assay: Dox-Induced Her3-ss-Gluc Assay; type: cell-based; settings: 24 hr Dox induction; 293FRT/TO cells; read-out: 24 hr Dox Inducible Her3(ss + 4)Gluc 293FRT/TO: Mean IC50
In short: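 Compounds were diluted in DMSO/media containing doxycycline. They were added to Flp-In 293 T-REx cells plated the previous day, then incubated at 37 °C under 5% CO2. These cells stably express, under T-REx control, Gaussia luciferase fused to the HER3 signal sequence plus 4 amino acids.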

[4] = tested on: IL-2-FL/Gaussia Luciferase; assay: Dox Induced IL2-FL-Gluc Assay; type: cell-based; settings: for IC50: 24 hr Dox induction, 293FRT/TO cells, read-out: 24 hr Dox Inducible IL2FLGluc 293FRT/TO: Mean IC50; for 24 hr Dox Inducible IL2FLGluc 293FRT/TO: IL2/PD1: ratio of IL2FLGluc IC50 to PD1ssGluc IC50
In short: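 Compounds in DMSO/medium with doxycycline were applied to a 293 T-REx stable line expressing an IL-2 (aa 1-153)–Gaussia luciferase fusion under tetracycline-regulated control, cells seeded one day earlier; incubation at 37 °C, 5% CO2. Structures drawn without stereochemistry were tested as stereoisomer mixtures.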

[5] = tested on: multiple myeloma cell line NCI-H929; assay: H929 Cell Viability Assay; type: cell-based, human; settings: Homo sapiens, NCI-H929, 48 h, NCI-H929 cells, Celltiter-Glo
In short: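 Luminescent CellTiter-Glo read-out of viability after a 48 h exposure (37° C, 5% CO2) of NCI-H929 myeloma cells to compound dilutions in RPMI 1640 plus 10% FBS. Data for structures drawn without stereochemistry refer to stereoisomer mixtures.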

[6] = tested on: multiple myeloma cell line U266B1; assay: U266 Cell Viability Assay; type: cell-based, human; settings: Homo sapiens, U-266, 48 h, U266B1 cells, Celltiter-Glo
In short: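 CellTiter-Glo luminescence was read after a 48 h compound exposure (37 °C, 5% CO2) of human U266B1 myeloma cells grown in 10% FBS-supplemented RPMI 1640. Data for structures shown without defined stereochemistry refer to stereoisomer mixtures.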

[7] = Liver Microsome Stability Assay (rat); settings: rat liver microsomes, with NADPH, 1.0 uM compound
Method: (§1) Stability of a compound was assessed in the presence of liver microsomes from various sources—mouse, rat, monkey and human liver microsomes. 1.0 uM compound, 0.4% DMSO in 0.1 M Potassium Phosphate with 1.0 mg/mL liver microsomes, were incubated at 37° C. with or without 1 mM NADPH. The samples were quenched at 0, and 30 minutes.

[8] = Liver Microsome Stability Assay (mouse); settings: mouse liver microsomes, with NADPH, 1.0 uM compound
Method: as §1

[9] = Liver Microsome Stability Assay (human); settings: human liver microsomes, with NADPH, 1.0 uM compound
Method: as §1

[10] = Liver Microsome Stability Assay (monkey); settings: monkey liver microsomes, with NADPH, 1.0 uM compound
Method: as §1

SMILES	IC50 [1] [nM]	IC50 [2] [nM]	24 hr Dox Inducible TNFaFLGluc 293FRT/TO: TNF/PD1 [2]	IC50 [3] [nM]	IC50 [4] [nM]	24 hr Dox Inducible IL2FLGluc 293FRT/TO: IL2/PD1 [4]	EC50 [5] [nM]	EC50 [6] [nM]	Liver Microsome Stability (Multiple Species): Rat - % Remaining after 30 min w/NADPH [7] [%]	Liver Microsome Stability (Multiple Species): Mouse - % Remaining after 30 min w/NADPH [8] [%]	Liver Microsome Stability (Multiple Species): Human - % Remaining after 30 min w/NADPH [9] [%]	Liver Microsome Stability (Multiple Species): Monkey - % Remaining after 30 min w/NADPH [10] [%]
Nc1ccc(N2CCC[C@@H]2c2csc(NC(=O)c3cccn3Cc3ccncc3)n2)cc1 [Compound A20]	16.4	131	8	40.3	39.6	2.4	340	4700	26.3	7.28	4.63	2.72
Cc1ccc(N2CCC[C@@H]2c2csc(NC(=O)c3cccn3Cc3ccncc3)n2)cc1 [Compound A21, (R)-1-(pyridin-4-ylmethyl)-N-(4-(1-(p-tolyl)pyrrolidin-2-yl)thiazol-2-yl)-1H-pyrrole-2-carboxamide]	0.89	27.1	30.4	2.61	3.87	4.3	54.1	> 25000	11	6.31	4.28	1.43
O=C(Nc1nc([C@H]2CCCN2c2ccc(F)cc2)cs1)c1cccn1Cc1ccncc1 [Compound A25, (R)-N-(4-(1-(4-fluorophenyl)pyrrolidin-2-yl)thiazol-2-yl)-1-(pyridin-4-ylmethyl)-1H-pyrrole-2-carboxamide]	9.92	240	24.2	20.7	17.5	1.8	412	16100	1.84	1.56	3.01	1.66
O=C(Nc1nc([C@H]2CCCN2c2ccc(Cl)cc2)cs1)c1cccn1Cc1ccncc1 [Compound A26, (R)-N-(4-(1-(4-chlorophenyl)pyrrolidin-2-yl)thiazol-2-yl)-1-(pyridin-4-ylmethyl)-1H-pyrrole-2-carboxamide]	3.15	158	50.2	9.38	6.78	2.1	136	1170	8.78	5.75	5.11	3.34
O=C(Nc1nc([C@H]2CCCN2c2ccc([N+](=O)[O-])cc2)cs1)c1cccn1Cc1ccncc1 [Compound A27, (R)-N-(4-(1-(4-nitrophenyl)pyrrolidin-2-yl)thiazol-2-yl)-1-(pyridin-4-ylmethyl)-1H-pyrrole-2-carboxamide]	57.9	1100	19.1	109	144	2.5	5790	> 25000	0.33	6.54	1.61	0.51
O=C(Nc1nc([C@H]2CCCN2c2ccc(C(F)(F)F)cc2)cs1)c1cccn1Cc1ccncc1 [Compound A28, (R)-1-(pyridin-4-ylmethyl)-N-(4-(1-(4-(trifluoromethyl)phenyl)pyrrolidin-2-yl)thiazol-2-yl)-1H-pyrrole-2-carboxamide]	5.73	137	23.9	11.6	10.8	1.9	251	10100	51.5	30.3	16.4	3.97
O=C(Nc1nc([C@H]2CCCN2c2cccnn2)cs1)c1cccn1Cc1ccncc1 [Compound A29, (R)-N-(4-(1-(pyridazin-3-yl)pyrrolidin-2-yl)thiazol-2-yl)-1-(pyridin-4-ylmethyl)-1H-pyrrole-2-carboxamide]	534	13100	24.4	1130	2220	4.1	> 25000	> 25000	4.6	1.4	0.59	0.39
NCc1ccc(N2CCC[C@@H]2c2csc(NC(=O)c3cccn3Cc3ccncc3)n2)cc1 [Compound A44, (R)-N-(4-(1-(4-(aminomethyl)phenyl)pyrrolidin-2-yl)thiazol-2-yl)-1-(pyridin-4-ylmethyl)-1H-pyrrole-2-carboxamide]	167	3880	23.3	415	408	2.4	3310	6950	30	62.6	28.6	26

Source: patent publication US20230286973A1, “PROTEIN SECRETION INHIBITORS” (KEZAR LIFE SCIENCES, priority 2020, published 2023)
